Data published in PMC12391391, “The balance between B55α and Greatwall expression levels predicts sensitivity to Greatwall inhibition in cancer cells” (Nature Communications, 2025).
Like-named read-outs stand apart in the source and are kept apart here.

Assays:
[1] = biological target: T1, Greatwall kinase (GWL, MASTL) (Homo sapiens, UniProt Q96GX5, K72M); assay: HTRF kinase assay with purified full-length GWL (K72M) and ENSA; type: biochemical
T1 construct: full-length
T1 sequence (Q96GX5 1-879 K72M): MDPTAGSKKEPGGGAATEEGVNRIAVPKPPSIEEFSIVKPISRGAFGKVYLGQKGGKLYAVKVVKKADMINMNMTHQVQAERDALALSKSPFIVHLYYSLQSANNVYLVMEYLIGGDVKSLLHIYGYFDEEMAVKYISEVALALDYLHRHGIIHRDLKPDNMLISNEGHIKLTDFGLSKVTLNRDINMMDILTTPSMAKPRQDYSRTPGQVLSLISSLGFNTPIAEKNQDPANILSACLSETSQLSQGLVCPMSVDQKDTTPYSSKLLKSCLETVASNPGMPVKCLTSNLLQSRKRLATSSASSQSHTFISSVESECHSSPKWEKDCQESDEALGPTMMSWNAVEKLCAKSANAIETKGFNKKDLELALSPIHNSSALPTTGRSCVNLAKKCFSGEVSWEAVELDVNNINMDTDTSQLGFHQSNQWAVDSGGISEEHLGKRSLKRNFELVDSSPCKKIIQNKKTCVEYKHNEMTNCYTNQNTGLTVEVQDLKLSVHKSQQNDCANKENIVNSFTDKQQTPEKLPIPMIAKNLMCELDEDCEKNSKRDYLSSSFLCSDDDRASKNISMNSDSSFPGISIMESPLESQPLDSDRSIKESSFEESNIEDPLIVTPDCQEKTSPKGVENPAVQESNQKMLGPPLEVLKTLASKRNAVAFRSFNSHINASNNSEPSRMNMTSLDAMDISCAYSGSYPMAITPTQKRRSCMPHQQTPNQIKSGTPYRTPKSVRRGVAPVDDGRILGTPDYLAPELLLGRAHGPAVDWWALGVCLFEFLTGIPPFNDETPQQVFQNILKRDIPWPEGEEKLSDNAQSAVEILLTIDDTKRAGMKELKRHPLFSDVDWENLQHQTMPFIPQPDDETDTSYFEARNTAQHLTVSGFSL

[2] = biological target: T2, CDK1/cyclinB (Homo sapiens, UniProt P06493); assay: biochemical; set-up: CDK1/cyclin B and off-target kinase inhibition assay; conditions: read-out: off-target pIC50 (converted)
[3] = in vitro; set-up: intrinsic clearance in mouse microsomes; conditions: liver microsomes; mouse liver microsomes
Description: (§1) We selected compound 1 as the lead exemplar of cluster 3 and leveraged it as a foundation for subsequent drug development (Fig. 1a). Structure-activity relationship studies and pharmacokinetic profiling produced several derivative molecules, of which compound 21 provided the best combination of outstanding inhibitory potential, low clearance in mouse microsomes and acceptable solubility (Fig. 1a–c and Supplementary Tables 1–4). […] This assessment was supported by structural modelling of the interaction between compound 21 and the active site of GWL (Fig. 1d). In further support of its GWL-targeting properties, compound 21 diminished the phosphorylation of the canonical GWL substrate ENSA(S67) in Xenopus laevis cytostatic factor (CSF) egg extract (Supplementary Fig. 2). Having satisfied the criteria of prospective GWL inhibitor, the racemic compound 21 was registered as UOS-00054604 and, for the remainder of the manuscript, is referred to as C-604.

[4] = biological target: T1, Greatwall kinase (GWL, MASTL); assay: biochemical; set-up: HTRF kinase assay with full-length GWL and ENSA, inhibition
Description: To discover small molecules interfering with GWL activity, we screened a kinase-focused subset of the AstraZeneca compound collection in the full-length hyperactive GWL (K72M) homogeneous time-resolved fluorescence (HTRF) assay. The kinase screening collection comprised around 40,000 samples of interest, augmented by exemplars of kinase hinge-binding motifs, literature-reported kinase actives and screening catalogue purchases (mean MW ≈ 360, mean clogP ≈ 2.8), aiming to achieve as wide a coverage of the kinome as possible. Initially, we selected potential active molecules with a z-score ≤ −5 (equivalent to approximately 25% inhibition or better) and performed compound clustering, followed by near-neighbour testing and determination of relevant median inhibitory concentration (IC50) values. Subsequent re-clustering based on GWL inhibitory potency, Cdk1 selectivity, broad kinome selectivity and additional known factors influencing drug developability, such as molecular weight, lipophilicity and the number of hydrogen donors and acceptors, generated six prioritised compound clusters (Supplementary Fig. 1a, b). […] Despite the favourable kinase selectivity profile of cluster 5, we considered this series less attractive due to the limited number of compounds (n = 5) and suboptimal molecular properties for a hit, such as higher lipophilicity, lower binding efficiency (as indicated by ligand-lipophilic efficiency, LLE) and greater molecular weight (Supplementary Fig. 1a, b). […] We selected compound 1 as the lead exemplar of cluster 3 and leveraged it as a foundation for subsequent drug development (Fig. 1a). Structure-activity relationship studies and pharmacokinetic profiling produced several derivative molecules, of which compound 21 provided the best combination of outstanding inhibitory potential, low clearance in mouse microsomes and acceptable solubility (Fig. 1a–c and Supplementary Tables 1–4). […] This assessment was supported by structural modelling of the interaction between compound 21 and the active site of GWL (Fig. 1d). In further support of its GWL-targeting properties, compound 21 diminished the phosphorylation of the canonical GWL substrate ENSA(S67) in Xenopus laevis cytostatic factor (CSF) egg extract (Supplementary Fig. 2). Having satisfied the criteria of prospective GWL inhibitor, the racemic compound 21 was registered as UOS-00054604 and, for the remainder of the manuscript, is referred to as C-604.  Fig. 1 Development and characterisation of the GWL kinase inhibitor C-604. a Chemical structure of the lead exemplar compound 21 and the general synthetic route towards the preparation of pyrrolopyrazine GWL inhibitors. (a) for 4a, (i) NaH, SEM-Cl, DMF, 0 °C, 4 h; (ii) Arnold’s reagent, CHCl3, 60 °C, 20 h; (iii) NaClO2, KH2PO4, NH2SO3H, 1,4-dioxane/water, 0 °C to rt, 2 h, 35% (three steps); for 4b, (i) hexamine, TFA, MW, 80 °C, 20 min; (ii) NaH, SEM-Cl, DMF, 0 °C to rt, 16 h; (iii) NaClO2, KH2PO4, NH2SO3H, 1,4-dioxane/water, 0 °C to rt, 1.5 h, 14% (three steps); (b) 2 M methylamine in THF, T3P, pyridine, EtOAc, 60 °C, 2-4 h, 89-97%; (c) 2-(pyrrolidin-1-yl)ethanol, CuI, L-proline, K2CO3, DMSO, 100 °C, 16 h, 48%; (d) TFA, DCM, rt, 16 h then ethylenediamine, DCM, rt, 3-6 h, 29-92%; (e) 1-methylpiperazine, CuI, L-proline, K2CO3, DMSO, 100 °C, 16 h, 77%; (f) boronate ester, Pd(dppf)Cl2 · DCM, 1,4-dioxane/water, MW, 120 °C, 30 min, 43-81%; (g) boronate ester, Pd(dppf)Cl2 · DCM, 1,4-dioxane/water, MW, 120 °C, 30 min, 56%; (h) amine, K2CO3, DMF, 95 °C, 1 h, 32-67%. b Chemical structure of the lead compound 21 (C-604). c Dose-dependent effect of compound 21 (C-604) on the in vitro GWL activity measured by an HTRF assay utilising purified full-length GWL (K72M) and ENSA. Per cent (%) inhibition was determined from fluorescence intensity values normalised to the signal measured in the control enzyme-free reaction. […]

[5] = in vitro; set-up: intrinsic clearance in human microsomes; conditions: liver microsomes, human liver microsomes
Description: as §1

[6] = physchem; set-up: aqueous solubility at pH 7.0; conditions: pH 7.0; buffer pH 7.0; aqueous buffer pH 7.0
Description: as §1

[7] = biological target: T2, CDK1/cyclinB; assay: biochemical; set-up: CDK1/cyclin B and off-target kinase inhibition assay
[8] = biological target: Syk (Homo sapiens, UniProt P43405); assay: biochemical; set-up: CDK1/cyclin B and off-target kinase inhibition assay; conditions: read-out: off-target pIC50 (converted)
[9] = biological target: T3, hERG (Homo sapiens, UniProt Q12809); assay: cell-based; set-up: hERG channel inhibition
T3 construct: gene KCNH2
Description: as §1

T2 sequence (P06493 whole entry): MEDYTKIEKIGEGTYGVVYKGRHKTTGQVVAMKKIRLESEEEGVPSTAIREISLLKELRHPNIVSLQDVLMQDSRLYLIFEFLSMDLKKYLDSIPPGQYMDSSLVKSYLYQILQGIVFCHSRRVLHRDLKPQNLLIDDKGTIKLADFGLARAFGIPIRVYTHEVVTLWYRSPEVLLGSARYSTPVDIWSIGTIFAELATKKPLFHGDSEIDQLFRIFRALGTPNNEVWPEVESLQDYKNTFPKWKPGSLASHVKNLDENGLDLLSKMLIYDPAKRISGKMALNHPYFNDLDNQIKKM
T2 sequence (P14635 whole entry partner): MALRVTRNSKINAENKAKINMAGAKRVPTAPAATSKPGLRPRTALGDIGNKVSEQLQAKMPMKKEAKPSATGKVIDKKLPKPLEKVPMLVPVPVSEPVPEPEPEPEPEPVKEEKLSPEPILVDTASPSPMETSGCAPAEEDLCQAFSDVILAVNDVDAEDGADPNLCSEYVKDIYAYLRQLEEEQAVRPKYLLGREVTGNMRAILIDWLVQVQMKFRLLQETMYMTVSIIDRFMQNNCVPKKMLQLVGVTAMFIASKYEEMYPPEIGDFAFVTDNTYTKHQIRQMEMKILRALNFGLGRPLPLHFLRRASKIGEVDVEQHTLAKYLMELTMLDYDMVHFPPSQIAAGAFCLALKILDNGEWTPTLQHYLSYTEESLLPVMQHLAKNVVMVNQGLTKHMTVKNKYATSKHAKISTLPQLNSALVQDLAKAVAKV
T3 sequence (Q12809 whole entry): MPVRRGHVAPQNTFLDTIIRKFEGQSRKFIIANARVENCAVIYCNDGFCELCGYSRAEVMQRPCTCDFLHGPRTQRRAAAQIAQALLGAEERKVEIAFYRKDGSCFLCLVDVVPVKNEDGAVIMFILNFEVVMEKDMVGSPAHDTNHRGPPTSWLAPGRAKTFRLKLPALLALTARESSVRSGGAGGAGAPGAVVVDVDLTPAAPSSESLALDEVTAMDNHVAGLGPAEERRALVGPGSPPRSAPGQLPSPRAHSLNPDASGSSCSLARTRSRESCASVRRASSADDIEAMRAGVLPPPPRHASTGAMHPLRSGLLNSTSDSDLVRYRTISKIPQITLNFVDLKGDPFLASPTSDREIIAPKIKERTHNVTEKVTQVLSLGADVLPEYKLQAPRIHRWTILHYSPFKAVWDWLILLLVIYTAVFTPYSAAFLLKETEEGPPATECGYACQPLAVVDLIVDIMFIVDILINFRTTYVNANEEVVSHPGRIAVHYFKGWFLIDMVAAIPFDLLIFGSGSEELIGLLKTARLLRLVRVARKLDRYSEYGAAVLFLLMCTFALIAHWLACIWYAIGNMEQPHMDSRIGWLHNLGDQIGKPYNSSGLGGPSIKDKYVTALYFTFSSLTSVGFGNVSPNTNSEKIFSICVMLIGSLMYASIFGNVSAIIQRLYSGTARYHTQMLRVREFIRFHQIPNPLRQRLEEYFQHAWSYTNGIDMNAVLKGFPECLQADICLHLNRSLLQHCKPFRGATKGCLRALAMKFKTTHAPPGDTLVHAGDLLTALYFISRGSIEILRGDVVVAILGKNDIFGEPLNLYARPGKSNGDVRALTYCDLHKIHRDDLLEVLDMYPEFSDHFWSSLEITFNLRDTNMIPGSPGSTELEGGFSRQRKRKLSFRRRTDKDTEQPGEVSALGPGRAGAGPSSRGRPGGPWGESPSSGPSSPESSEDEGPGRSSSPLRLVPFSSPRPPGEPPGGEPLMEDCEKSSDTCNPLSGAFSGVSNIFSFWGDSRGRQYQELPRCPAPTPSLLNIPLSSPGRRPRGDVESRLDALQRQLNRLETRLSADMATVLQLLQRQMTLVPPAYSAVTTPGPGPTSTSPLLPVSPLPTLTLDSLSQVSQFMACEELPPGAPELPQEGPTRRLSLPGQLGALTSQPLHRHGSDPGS

**Q.** With CNC(=O)c1c[nH]c2ncc(-c3ccc(OCCN4CC[C@H](c5ccccc5)C4)cc3)nc12 [21 (R), compound 21, R stereoisomer] as the molecule, how does the IC50 [1] read?
**A.** 13.3 ± 6.4 nM

**Q.** With CNC(=O)c1c[nH]c2ncc(-c3cn(C)c4ccccc34)nc12 [compound 1, 1] as the molecule, how does the IC50 [2] read?
**A.** 3160 nM

**Q.** And the microsomal CLint [3]?
**A.** 196 µL/min/mg

**Q.** And the IC50 ([4]; read-out: K72MGWL HTRF pIC50 (converted))?
**A.** 100 nM

**Q.** And the microsomal CLint ([5]; read-out: Cl (human))?
**A.** 147 µL/min/mg

**Q.** And the microsomal CLint ([5]; read-out: hMic Clint)?
**A.** 45 µL/min/mg

**Q.** And the solubility [6]?
**A.** 15 µM

**Q.** And the IC50 [7]?
**A.** 1480 nM

**Q.** And the IC50 [8]?
**A.** 25.1 nM

**Q.** And the IC50 [9]?
**A.** > 30000 nM

**Q.** For CNC(=O)c1c[nH]c2ncc(-c3cccnc3)nc12 [compound 10, 10], which IC50 [4] is on record?
**A.** 507 nM

**Q.** Which IC50 [4] does the source give for CNC(=O)c1c[nH]c2ncc(OCCN3CCCC3)nc12 [compound 6, 6] here?
**A.** 5880 nM

**Q.** With CNC(=O)c1c[nH]c2ncc(-c3ccc(OCCN4CCCCC4)cc3)nc12 [compound 20, 20] as the molecule, how does the microsomal CLint [3] read?
**A.** 12 µL/min/mg

**Q.** And the solubility [6]?
**A.** 585 µM

**Q.** For CNC(=O)c1c[nH]c2ncc(-c3cccc(CN(C)C)c3)nc12 [compound 11, 11], which IC50 [4] is on record?
**A.** 206 nM

**Q.** For CNC(=O)c1c[nH]c2ncc(N3CCN(C)CC3)nc12 [compound 7, 7], which IC50 [4] is on record?
**A.** 4240 nM

**Q.** Which microsomal CLint [3] does the source give for CNC(=O)c1c[nH]c2ncc(-c3ccc(OCCN4CCN(C)CC4)cc3)nc12 [compound 16, 16] here?
**A.** 18 µL/min/mg

**Q.** What about the IC50 [4] of the same molecule?
**A.** 31 nM

**Q.** For CNC(=O)c1c[nH]c2ncc(-c3ccc(C(=O)NCCN(C)C)cc3)nc12 [compound 13, 13], which IC50 [4] is on record?
**A.** 94 nM

**Q.** Which microsomal CLint [3] does the source give for CNC(=O)c1c[nH]c2ncc(-c3ccc(OCCN4CCCC4)cc3)nc12 [compound 19, 19] here?
**A.** 37 µL/min/mg

**Q.** Which microsomal CLint [3] does the source give for CNC(=O)c1c[nH]c2ncc(-c3ccc(OCCN4CCOCC4)cc3)nc12 [compound 15, 15] here?
**A.** 11 µL/min/mg

**Q.** What about the IC50 [4] of the same molecule?
**A.** 191 nM

**Q.** Which results are given for CNC(=O)c1c[nH]c2ncc(-c3ccc(N4CCN(C)CC4)cc3)nc12 [compound 14, 14]?
**A.** microsomal CLint [3]: 83 µL/min/mg; microsomal CLint ([5]; read-out: Cl (human)): 9 µL/min/mg; solubility [6]: 260 µM; IC50 [7]: > 30000 nM

**Q.** For CNC(=O)c1c[nH]c2ncc(-c3ccc(C#N)cc3)nc12 [compound 8, 8], which IC50 [4] is on record?
**A.** 339 nM

**Q.** For CNC(=O)c1c[nH]c2ncc(-c3ccc(OCCN4CCN(C(C)=O)CC4)cc3)nc12 [compound 17, 17], which microsomal CLint [3] is on record?
**A.** 7 µL/min/mg

**Q.** What about the IC50 [4] of the same molecule?
**A.** 80 nM

**Q.** Which IC50 [1] does the source give for CNC(=O)c1c[nH]c2ncc(-c3ccc(OCCN4CC[C@@H](c5ccccc5)C4)cc3)nc12 [21 (S), compound 21, S stereoisomer] here?
**A.** 10.9 ± 2 nM

**Q.** For CNC(=O)c1c[nH]c2ncc(-c3ccc(OCCN4CCC(OC)CC4)cc3)nc12 [compound 18, 18], which solubility [6] is on record?
**A.** 504 µM

**Q.** Which IC50 [4] does the source give for CNC(=O)c1c[nH]c2ncc(-c3cccc(C(=O)NCCN(C)C)c3)nc12 [compound 12, 12] here?
**A.** 62 nM
